No end group written: not given here.
Key:
CtBP1 = conditions: ref Zhang et al., 2002; read-out: K d, binding to CtBP1; cited from earlier work
Excerpt: This idea is strengthened by several studies that have found a correlation between CtBP1/2 overexpression and cancer progression in multiple tumor types, including blood (Senyuk et al., 2002), skin (Deng et al., 2013), breast (Birts et al., 2010; Deng et al., 2012; Di et al., 2013), prostate (Moiola et al., 2014; Wang et al., 2012), ovarian (May et al., 2013; Zhang e ...

H1299 cells [1] = assay: Subcellular fractionation and anti-FLAG western blot of the nuclear fraction; assay type: in vitro ADME, human; conditions: 1-h treatment, anti-FLAG, two biological replicates
Procedure: For cellular fractionation, H1299 cells were treated with 42 μg·mL^−1 digitonin in NEH lysis buffer (20 mM HEPES [pH 7.4], 150 mM NaCl, 0.2 mM EDTA, 2 mM DTT, and 2 mM MgCl2) plus a protease inhibitor cocktail (Roche) for 10 min at 4 °C. The H1299 cell lysate was centrifugated at 15 000 g in a Beckman Coulter Microfuge 22R (Beckman Coulter, Brea, CA, USA) for 10 min at 4 °C to remove the cytosolic fraction. The remaining pellet was washed twice with chilled PBS before the addition of the nuclear lysis buffer (40 mM Tris/HCl [pH 7.4], 100 mM NaCl, 10% glycerol, 2 mM β‐ME, and 0.5% Triton X‐100) plus the protease inhibitor cocktail. The nuclear fraction was incubated at 4 °C for 1 h before the final centrifugation at 15 000 g for 20 min. The soluble nuclear fraction was then used for a western blot analysis to monitor peptide levels within the nuclear fraction using a FLAG antibody (LT0420; LifeTein LLC, Somerset, NJ, USA). The western blot was also probed with primary antibodies against α‐tubulin (sc‐8035; SantaCruz Biotechnology, Dallas, TX, USA) and HDAC1 (ab‐68436; Abcam, Cambridge, MA, USA) as cytoplasmic and nuclear controls, respectively, to confirm subcellular fractionation.

[2] = target: T1, 6xHis-CtBP1 and GST-E1A (CtBP1-E1A interaction) (Homo sapiens, UniProt Q13363); assay: AlphaScreen assay of the CtBP1-E1A interaction; assay type: binding; conditions: AlphaScreen competition with GST-E1A; 125 nM 6xHis-CtBP1, 125 nM GST-E1A; peptide 2 μM to 200 μM; three experiments in triplicate; GraphPad Prism; read-out: IC50 (μM), disruption of the CtBP1-E1A interaction
T1 construct: 6xHis; made in house
Procedure: The AlphaScreen assay was carried out using 6xHis‐CtBP1 and GST‐E1A proteins following the manufacturer's protocol (PerkinElmer, Waltham, MA, USA) unless otherwise specified. GST‐E1A and 6xHis‐CtBP were purified as previously described (Blevins et al., 2015). To confirm inhibition by CPP‐E1A peptides, each peptide was added at varying concentrations (2 μM to 200 μM) to compete with GST‐E1A in the AlphaScreen assay containing 125 nM 6xHis‐CtBP1 and 125 nM GST‐E1A. The IC50 value of each peptide was calculated using the GRAPHPAD PRISM software (GraphPad Software, San Diego, CA, USA).

A375 cells = assay: Peptide internalization by anti-FLAG immunofluorescence in A375 cells; assay type: in vitro ADME, human; conditions: for Entry into A375 cells: anti-FLAG immunofluorescence as in Figure 2 (20 μM, 30 min)
Procedure: (§1) H1299 or A375 cells were allowed to adhere to a cover slip overnight in DMEM complete media and grown until they reached approximately 75% confluency on the cover slip surface. After a 30 min treatment with 20 μM peptides, TAT (used as a negative control), TAT‐E1A‐WT, and Pep1‐E1A‐WT, cells were fixed for 10 min using 100% methanol, and permeabilized for 1 min in 100% acetone. Each sample was stained with an anti‐FLAG antibody and detected using an Alexa Fluor 555 anti‐mouse IgG (4409S; Cell Signaling Technology, Danvers, MA, USA). DAPI staining was used to visualize the nucleus.

H1299 cells [3] = assay: Peptide internalization by anti-FLAG immunofluorescence in H1299 cells; assay type: in vitro ADME, human; conditions: 20 μM peptide, 30 min, DAPI
Procedure: as §1

[4] = Peptide stability in H1299 cells (western blot, fluorescence microscopy); assay type: in vitro ADME, human; conditions: 10 μM, 45 min, 2 h, 4 h, 8 h, western blot and FITC fluorescence microscopy
6xHis‐CtBP1 = 6xHis‐CtBP1 (UniProt Q13363); assay: AlphaScreen; conditions: competition against the CtBP1-E1A interaction, peptide at 250 µM (highest concentration), IC50 printed as 'Not determined', read off a plot

Molecule	Peptide in the nuclear fraction (western blot) (H1299 cells [1])	IC50 [2] [µM]	Entry into A375 cells (A375 cells)	Localization to the nucleus by immunofluorescence (H1299 cells [3])	other results
NC(=O)C1=CN([C@@H]2O[C@H](COP(=O)(O)OP(=O)(O)OC[C@H]3O[C@@H](n4cnc5c(N)ncnc54)[C@H](O)[C@@H]3O)[C@@H](O)[C@H]2O)C=CC1 [NADH, nicotinamide adenine dinucleotide]	–	–	–	–	Kd (CtBP1): 100 nM
GSHMGRKKRRQRRRPPQLEEPGQPLDLSCKRPRDYKDDDDK [TAT-E1A-WT]	found in the nuclear fraction	5.6 ± 1.4	can enter the A375 cells	much lower amount in the nucleus	–
GSHMKETWWETWWTEWSQPKKKRKVLEEPGQPLDLSCKRPRDYKDDDDK [Pep1-E1A-WT]	found in the nuclear fraction	7.1 ± 1.2	can enter the A375 cells	significant amount of localization to the nucleus	Nuclear localization pattern in A375 cells (A375 cells; anti-FLAG immunofluorescence as in Figure 2): more predominant nuclear localization pattern; Peptide half-life / stability in vitro [4]: short half‐life
Pep1‐E1A‐WT L35E; S36L	–	–	–	–	response (6xHis‐CtBP1; parent: est. 5): 58 % Bound
TAT‐E1A‐WT L27E; S28L	–	–	–	–	response (6xHis‐CtBP1; parent: est. 3): 80 % Bound

From paper PMC6068344, “CPP‐E1A fusion peptides inhibit CtBP‐mediated transcriptional repression” (Molecular Oncology, 2018)
